Assay results as given in ChEMBL document CHEMBL1208692, “A specific and direct comparison of the trifluoromethyl and pentafluoro sulfanyl groups on the selective dopamine D(3) antagonist 3-(3-{[4-methyl-5-(4-methyl-1,3-oxazol-5-yl)-4H-1,2,4-triazol-3-yl]thio}propyl)-1-phenyl-3-azabicyclo[3.1.0]hexane template” (Bioorg Med Chem Lett, 2010).

Key:
[1] = Ratio of drug level in brain to blood in rat; format: ADME, tissue-based; conditions: read-out: BBR
[2] = Blood clearance in rat; format: ADME, organism-based; conditions: whole blood
[3] = Tmax in rat; format: ADME, organism-based; conditions: in vivo
Cytochrome P450 3A4 [4] = target: T1, Cytochrome P450 3A4 (Homo sapiens, UniProt P08684); assay: Inhibition of CYP3A4 using 7-benzyloxyquinoline as substrate; format: ADME
T1 sequence (P08684 whole entry): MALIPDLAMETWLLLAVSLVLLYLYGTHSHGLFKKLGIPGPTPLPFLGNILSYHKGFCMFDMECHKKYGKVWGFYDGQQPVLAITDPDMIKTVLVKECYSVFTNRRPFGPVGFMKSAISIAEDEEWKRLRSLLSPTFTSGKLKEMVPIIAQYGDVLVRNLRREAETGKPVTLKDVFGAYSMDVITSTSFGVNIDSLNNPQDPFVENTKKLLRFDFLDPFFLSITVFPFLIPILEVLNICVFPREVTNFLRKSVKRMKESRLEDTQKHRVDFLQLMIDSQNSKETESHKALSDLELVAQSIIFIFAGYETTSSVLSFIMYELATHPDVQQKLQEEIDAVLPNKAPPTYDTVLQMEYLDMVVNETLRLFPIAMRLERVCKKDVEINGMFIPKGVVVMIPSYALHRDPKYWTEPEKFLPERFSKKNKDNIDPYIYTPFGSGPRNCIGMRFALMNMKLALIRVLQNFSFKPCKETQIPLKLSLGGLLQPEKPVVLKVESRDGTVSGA

Cytochrome P450 1A2 = target: T2, Cytochrome P450 1A2 (Homo sapiens, UniProt P05177); assay: Inhibition of CYP1A2; format: ADME
T2 sequence (P05177 whole entry): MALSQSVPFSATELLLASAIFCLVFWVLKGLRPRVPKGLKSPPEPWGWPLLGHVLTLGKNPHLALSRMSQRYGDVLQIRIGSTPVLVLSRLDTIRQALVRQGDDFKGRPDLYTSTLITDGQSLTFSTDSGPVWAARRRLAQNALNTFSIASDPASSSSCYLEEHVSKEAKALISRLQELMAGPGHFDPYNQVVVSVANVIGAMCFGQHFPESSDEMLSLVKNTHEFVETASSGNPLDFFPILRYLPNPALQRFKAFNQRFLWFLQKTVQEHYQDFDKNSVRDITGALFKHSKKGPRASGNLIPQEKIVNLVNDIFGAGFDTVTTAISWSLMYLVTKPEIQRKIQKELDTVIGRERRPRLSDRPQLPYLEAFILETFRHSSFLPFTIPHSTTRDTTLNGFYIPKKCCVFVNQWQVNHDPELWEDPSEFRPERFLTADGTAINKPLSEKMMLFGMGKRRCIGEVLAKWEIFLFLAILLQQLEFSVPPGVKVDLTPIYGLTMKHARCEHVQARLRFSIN

Cytochrome P450 3A4 [5] = target: T1, Cytochrome P450 3A4; assay: Inhibition of CYP3A4 using diethoxyfluorescein as substrate; format: ADME
Cytochrome P450 2C19 = Cytochrome P450 2C19 (Homo sapiens, UniProt P33261); assay: Inhibition of CYP2C19; format: ADME
Cytochrome P450 2C19, sequence (P33261 whole entry): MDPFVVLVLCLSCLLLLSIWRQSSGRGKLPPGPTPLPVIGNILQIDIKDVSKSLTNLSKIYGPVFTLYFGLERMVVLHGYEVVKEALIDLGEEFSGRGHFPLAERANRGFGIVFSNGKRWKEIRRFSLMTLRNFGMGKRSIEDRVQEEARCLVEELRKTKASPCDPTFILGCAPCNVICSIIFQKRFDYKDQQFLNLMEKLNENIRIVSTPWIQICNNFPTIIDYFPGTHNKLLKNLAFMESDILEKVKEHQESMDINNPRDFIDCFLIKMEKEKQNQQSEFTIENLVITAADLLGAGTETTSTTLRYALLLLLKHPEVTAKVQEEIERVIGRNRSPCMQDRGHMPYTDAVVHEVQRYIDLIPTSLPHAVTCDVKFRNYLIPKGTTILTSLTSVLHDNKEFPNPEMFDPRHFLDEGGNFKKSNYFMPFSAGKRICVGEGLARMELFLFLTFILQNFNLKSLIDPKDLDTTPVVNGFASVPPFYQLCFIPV

Cytochrome P450 2D6 = Cytochrome P450 2D6 (Homo sapiens, UniProt P10635); assay: Inhibition of CYP2D6; format: ADME
Cytochrome P450 2D6, sequence (P10635 whole entry): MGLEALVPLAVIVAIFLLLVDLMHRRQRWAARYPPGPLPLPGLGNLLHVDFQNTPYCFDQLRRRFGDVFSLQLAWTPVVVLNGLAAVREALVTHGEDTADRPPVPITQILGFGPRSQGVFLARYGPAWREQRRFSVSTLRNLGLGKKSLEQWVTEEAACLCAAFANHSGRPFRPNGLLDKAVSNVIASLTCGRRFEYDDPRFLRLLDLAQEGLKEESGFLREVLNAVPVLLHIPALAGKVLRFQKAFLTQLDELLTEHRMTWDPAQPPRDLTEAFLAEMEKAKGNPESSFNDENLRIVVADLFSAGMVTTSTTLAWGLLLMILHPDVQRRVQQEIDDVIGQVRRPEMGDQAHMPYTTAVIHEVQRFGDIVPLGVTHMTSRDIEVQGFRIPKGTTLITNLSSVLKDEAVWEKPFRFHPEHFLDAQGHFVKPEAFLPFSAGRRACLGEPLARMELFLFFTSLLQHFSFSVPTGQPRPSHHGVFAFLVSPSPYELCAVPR

Cytochrome P450 2C9 = Cytochrome P450 2C9 (Homo sapiens, UniProt P11712); assay: Inhibition of CYP2C9; format: ADME
Cytochrome P450 2C9, sequence (P11712 whole entry): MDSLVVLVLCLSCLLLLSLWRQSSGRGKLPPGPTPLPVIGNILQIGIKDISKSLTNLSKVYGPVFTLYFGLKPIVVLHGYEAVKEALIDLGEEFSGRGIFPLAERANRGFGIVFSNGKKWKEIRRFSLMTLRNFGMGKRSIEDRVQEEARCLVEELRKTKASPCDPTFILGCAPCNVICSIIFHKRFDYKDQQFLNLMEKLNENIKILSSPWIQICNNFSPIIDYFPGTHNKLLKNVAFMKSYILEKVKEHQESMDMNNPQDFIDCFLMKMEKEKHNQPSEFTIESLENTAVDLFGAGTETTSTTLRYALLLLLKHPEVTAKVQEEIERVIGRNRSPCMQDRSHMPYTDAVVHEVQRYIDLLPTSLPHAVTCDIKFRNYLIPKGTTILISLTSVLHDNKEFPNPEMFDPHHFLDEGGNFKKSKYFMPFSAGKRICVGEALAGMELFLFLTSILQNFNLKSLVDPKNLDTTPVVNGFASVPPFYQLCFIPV

[6] = Half life in rat; format: ADME, organism-based; conditions: in vivo
[7] = Volume of distribution in rat; format: ADME, organism-based; conditions: in vivo
[8] = Bioavailability in rat; format: ADME, organism-based; conditions: in vivo
D(2) dopamine receptor = D(2) dopamine receptor (Homo sapiens, UniProt P14416); assay: Antagonist activity at dopamine D2 receptor assessed as inhibition of dopamine-induced [35S]GTPgammaS binding […]; format: functional
D(2) dopamine receptor, sequence (P14416 whole entry): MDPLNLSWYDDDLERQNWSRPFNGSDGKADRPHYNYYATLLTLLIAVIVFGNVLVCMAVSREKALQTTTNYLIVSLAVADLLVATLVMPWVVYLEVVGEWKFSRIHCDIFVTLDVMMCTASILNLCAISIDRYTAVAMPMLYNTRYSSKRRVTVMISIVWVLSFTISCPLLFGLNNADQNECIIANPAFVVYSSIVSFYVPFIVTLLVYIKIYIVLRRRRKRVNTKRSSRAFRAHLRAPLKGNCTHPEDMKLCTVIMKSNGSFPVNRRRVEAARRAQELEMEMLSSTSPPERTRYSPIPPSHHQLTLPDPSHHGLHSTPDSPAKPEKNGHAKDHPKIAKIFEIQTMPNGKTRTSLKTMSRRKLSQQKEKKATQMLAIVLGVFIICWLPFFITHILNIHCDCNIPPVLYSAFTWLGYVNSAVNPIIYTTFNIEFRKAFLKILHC

D(3) dopamine receptor = D(3) dopamine receptor (Homo sapiens, UniProt P35462); assay: Antagonist activity at dopamine D3 receptor assessed as inhibition of dopamine-induced [35S]GTPgammaS binding […]; format: functional
D(3) dopamine receptor, sequence (P35462 whole entry): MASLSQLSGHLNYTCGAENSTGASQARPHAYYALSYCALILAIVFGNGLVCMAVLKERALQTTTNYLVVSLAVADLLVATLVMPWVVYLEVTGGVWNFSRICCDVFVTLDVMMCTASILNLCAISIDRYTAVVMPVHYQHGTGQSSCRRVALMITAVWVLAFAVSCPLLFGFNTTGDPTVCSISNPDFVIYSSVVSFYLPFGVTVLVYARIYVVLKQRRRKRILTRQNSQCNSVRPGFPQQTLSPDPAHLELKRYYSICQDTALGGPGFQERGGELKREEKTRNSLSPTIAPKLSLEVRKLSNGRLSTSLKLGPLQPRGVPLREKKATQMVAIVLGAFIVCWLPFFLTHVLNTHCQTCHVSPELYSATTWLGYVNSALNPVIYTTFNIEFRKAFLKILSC

[9] = target: Voltage-gated inwardly rectifying potassium channel KCNH2 (Homo sapiens, UniProt Q12809)
Voltage-gated inwardly rectifying potassium channel KCNH2, sequence (Q12809 whole entry): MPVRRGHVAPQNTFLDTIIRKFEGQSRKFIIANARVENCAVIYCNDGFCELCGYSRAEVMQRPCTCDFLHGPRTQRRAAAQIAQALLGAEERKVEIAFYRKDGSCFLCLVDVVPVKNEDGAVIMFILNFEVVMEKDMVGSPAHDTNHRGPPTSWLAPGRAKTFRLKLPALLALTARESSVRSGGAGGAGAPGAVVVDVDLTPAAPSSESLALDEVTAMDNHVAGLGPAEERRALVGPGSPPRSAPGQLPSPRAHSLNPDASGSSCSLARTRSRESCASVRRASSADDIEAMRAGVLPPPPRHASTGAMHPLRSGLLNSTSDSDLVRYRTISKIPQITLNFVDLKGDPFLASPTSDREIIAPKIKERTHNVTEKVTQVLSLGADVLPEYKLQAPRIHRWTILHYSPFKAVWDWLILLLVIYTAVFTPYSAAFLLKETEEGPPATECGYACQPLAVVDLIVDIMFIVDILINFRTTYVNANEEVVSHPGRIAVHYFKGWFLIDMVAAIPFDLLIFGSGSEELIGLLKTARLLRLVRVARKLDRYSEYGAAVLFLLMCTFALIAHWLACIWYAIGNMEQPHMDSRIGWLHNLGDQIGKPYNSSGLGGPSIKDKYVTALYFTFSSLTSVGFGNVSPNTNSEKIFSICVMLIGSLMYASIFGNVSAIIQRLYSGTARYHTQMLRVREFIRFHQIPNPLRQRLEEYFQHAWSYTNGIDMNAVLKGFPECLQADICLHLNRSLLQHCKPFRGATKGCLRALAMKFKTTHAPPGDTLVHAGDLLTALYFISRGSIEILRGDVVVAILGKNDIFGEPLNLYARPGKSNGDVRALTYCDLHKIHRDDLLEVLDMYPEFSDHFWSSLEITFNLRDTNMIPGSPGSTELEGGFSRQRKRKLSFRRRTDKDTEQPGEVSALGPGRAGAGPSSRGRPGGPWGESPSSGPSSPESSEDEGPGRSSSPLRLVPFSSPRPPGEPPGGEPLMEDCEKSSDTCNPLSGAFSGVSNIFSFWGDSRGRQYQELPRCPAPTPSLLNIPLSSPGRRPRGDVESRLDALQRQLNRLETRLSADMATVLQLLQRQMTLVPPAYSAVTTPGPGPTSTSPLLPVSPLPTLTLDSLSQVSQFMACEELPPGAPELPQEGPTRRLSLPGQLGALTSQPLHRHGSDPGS

Structure (SMILES) | Kp [1] | clearance [2] | Tmax [3] | IC50 (Cytochrome P450 3A4 [4]) | IC50 (Cytochrome P450 1A2) | IC50 (Cytochrome P450 3A4 [5]) | IC50 (Cytochrome P450 2C19) | IC50 (Cytochrome P450 2D6) | IC50 (Cytochrome P450 2C9) | half-life [6] | Vd [7] | bioavailability [8] | Ki (D(2) dopamine receptor) | Ki (D(3) dopamine receptor) | IC50 [9]
Cc1ncoc1-c1nnc(SCCCN2CC3CC3(c3ccc(S(F)(F)(F)(F)F)cc3)C2)n1C (racemic) | 2.2 | 8 mL/min/kg | 2.7 h | > 10 µM | > 10 µM | > 10 µM | > 10 µM | 8 µM | 9 µM | 4.4 h | 2.8 L/kg | 87% | 0.158 µM | – | –
Cc1ncoc1-c1nnc(SCCCN2CC3CC3(c3cccc(S(F)(F)(F)(F)F)c3)C2)n1C (racemic) | – | – | – | > 10 µM | > 10 µM | > 10 µM | 9 µM | 3 µM | 4 µM | – | – | – | 0.126 µM | 0.00126 µM | 1 µM
Cc1ncoc1-c1nnc(SCCCN2CC3CC3(c3ccc(S(F)(F)(F)(F)F)cc3)C2)n1C (single isomer, unassigned) | – | – | – | > 10 µM | 7 µM | > 10 µM | > 10 µM | > 10 µM | 9 µM | – | – | – | 0.251 µM | 0.0126 µM | –
Cc1ncoc1-c1nnc(SCCCN2CC3CC3(c3cccc(S(F)(F)(F)(F)F)c3)C2)n1C (single isomer, unassigned; 11) | – | – | – | > 10 µM | > 10 µM | > 10 µM | 4 µM | 5 µM | 2 µM | – | – | – | > 3.16 µM | 0.0158 µM | 2 µM
Cc1ncoc1-c1nnc(SCCCN2CC3CC3(c3cccc(S(F)(F)(F)(F)F)c3)C2)n1C (single isomer, unassigned; 12) | – | – | – | > 10 µM | > 10 µM | > 10 µM | 3 µM | 2 µM | 2 µM | – | – | – | 0.0316 µM | 0.000631 µM | 1.26 µM

Continued, in another order:

Kp [1] | clearance [2] | Tmax [3] | IC50 (Cytochrome P450 3A4 [4]) | IC50 (Cytochrome P450 1A2) | IC50 (Cytochrome P450 3A4 [5]) | IC50 (Cytochrome P450 2C19) | IC50 (Cytochrome P450 2D6) | IC50 (Cytochrome P450 2C9) | half-life [6] | Vd [7] | bioavailability [8] | Ki (D(2) dopamine receptor) | Ki (D(3) dopamine receptor) | Structure (SMILES) | IC50 [9]
2.3 | 14 mL/min/kg | 1.5 h | – | – | – | – | – | – | – | – | – | – | – | Cc1ncoc1-c1nnc(SCCCN2CC3CC3(c3ccc(C(F)(F)F)cc3)C2)n1C (racemic) | –
– | – | – | > 10 µM | > 10 µM | > 10 µM | 5 µM | > 10 µM | > 10 µM | – | – | – | – | – | Cc1ncoc1-c1nnc(SCCCN2CC3CC3(c3cccc(C(F)(F)F)c3)C2)n1C (racemic) | –
– | – | – | > 10 µM | 8 µM | > 10 µM | > 10 µM | > 10 µM | 9 µM | – | – | – | 0.158 µM | 0.001 µM | Cc1ncoc1-c1nnc(SCCCN2CC3CC3(c3ccc(S(F)(F)(F)(F)F)cc3)C2)n1C (stereo in doubt; 8) | –
